Assay results from patent publication US20090155785A1, “REAL-TIME COLORIMETRIC SCREENING INHIBITORS OF ENDONUCLEASE WITH GOLD NANOPARTICLE SUBSTRATE” (NORTHWESTERN UNIVERSITY, priority 2007, published 2009).

Columns and labels:
duplex DNA = test: Melting temperature of duplex DNA (without nanoparticles) in the presence of DNA binding molecule; details: DNA duplex 2.0 μM, sodium phosphate buffer 10 mM pH 7.0, NaCl 100 mM, DNA binding molecule 5.0 μM, control 61.0
DNase I [1] = test: Colorimetric DNase I inhibition assay, hybridized gold nanoparticle aggregates without linker oligonucleotide (Example 1); type: biochemical; details: inhibitor 1 μM, DNase I 15 units/ml, extinction at 520 nm, room temperature; control 6.8 min
Protocol: In addition to screening enzyme activity, one can easily use the assay to evaluate the efficiency of inhibitors of DNase I. In a typical screening experiment, DNase I (15 units/ml) was added to solutions of the DNA-linked gold nanoparticle aggregates in the presence of one of the following DNA binding molecules: amsacrine (AMSA), anthraquinone-2-carboxylic acid (AQ2A), 9-aminoacridine (9-AA), ellipticine (EIPT), daunorubicin (DNR), ethidium bromide (EB) and 4′,6-diamidedino-2-phenylindole (DAPI) (1 μM), respectively. These DNA binding molecules are known to inhibit DNase I. (See R. A. Ikeda, P. B. Dervan, J. Am. Chem. Soc., 104: 296 (1982); S. M. Forrow, M. Lee, R. L. Souhami, J. A. Hartley, Chem. Biol. Interact., 96: 125 (1995); P. G. Baraldi, A. Bovero, F. Fruttarolo, D. Preti, M. A. Tabrizi, M. G. Pavani, R. Romagnoli, Med. Res. Rev., 24: 475 (2004)). Extinction was monitored at 520 nm as a function of time (sample scan rate=5 min^−), and the color of the solution was followed with the naked eye. The time at which 50% of the aggregate is hydrolyzed (TH) can be used as a measure of inhibition (FIG. 6). The inhibitors decrease DNase I activity and increase the TH and, therefore, the corresponding time required for a color change in the solution. […] The trend is determined based on TH, which is consistent with the relative binding affinities of the inhibitors to DNA, as determined by measuring the melting temperature of the duplex DNA in the presence of each DNA-binding molecule (FIG. 6 and Table 1 below).
The relative binding affinities of the inhibitors to DNA are consistent with the hydrolysis time (TH) of the aggregates by DNase I in the presence of a specific inhibitor. TH is determined by measuring the extinction at 520 nm and determining when half of the particles composing the aggregates have been released.
AuNP-1 and AuNP-2 were functionalized with 3′-thiol-modified 30-mer oligonucleotides (AuNP-1, DNA-1 sequence: 5′-[…]-A10-SH-3′, SEQ ID NO: 1; AuNP-2, DNA-2 sequence: 5′-[…]-A10-SH-3′, SEQ ID NO:2) using previously reported methods. (See J. J. Storhoff, R. Elghanian, R. C. Mucic, C. A. Mirkin, R. L. Letsinger, J. Am. Chem. Soc., 120: 1959 (1998)). After combining 1 ml aliquots of the two probes, AuNP-1 and AuNP-2 (each at 3 nM), in hybridization buffer (50 mM Tris-HCl buffer pH 7.0, 2 mM MgCl2), the mixture was heated to 90° C. and held at this temperature for 10 minutes.
The pre-prepared gold nanoparticle aggregates were washed (3 times) with DNase I buffer (10 mM sodium phosphate buffer pH 7.0, 0.75 mM MgCl2). They were then resuspended in 1 ml of DNase I buffer. A 10 μL aliquot of each of the endonuclease inhibitors (0.1 mM) was then added to a 1 ml solution of the aggregates, respectively, and incubated for 10 minutes. The assay was initiated by adding DNase I, and the hydrolysis kinetics were monitored by UV-vis spectroscopy (Cary 5000, Varian). The solution was continuously stirred with a magnetic stir bar at room temperature to keep the aggregates suspended.

DNase I [2] = test: Colorimetric DNase I inhibition assay, ligated gold nanoparticle aggregates with linker oligonucleotide (Example 2); type: biochemical; details: for t (releasing time; time required to hydrolyze 50% of the aggregates): inhibitor 1 μM, DNase I 15 units/ml, extinction at 520 nm, ligated aggregates, control 9.5 min
Protocol: A typical screening experiment was slated by adding the DNase I to solutions of the gold nanoparticle aggregates in the presence of one of the DNA binding molecules, amsacrine (AMSA), anthrquinone-2-carboxylic acid (AQ2A), 9-aminoacridine (9-AA), ellipticine (EIPT), daunorubicin (DNR), ethidium bromide (EB) and 4′,6-diamidedino-2-phenylindole (DAPI) (1 μM), respectively. The color changes of the solutions were monitored at 520 nm by UV-vis spectrometry over time (sample scan rate=2 min^−1). The inhibitors can decrease DNase I activity and increase the hydrolysis time and the corresponding time required for a color change in the solution. Thus, we could determine the relative activities of different endonuclease inhibitors by measuring the time required to hydrolyze 50% of the aggregates (t). […] The hydrolysis time is consistent with relative binding affinities of inhibitors to DNA by determining the melting temperature (Tm) of duplex DNA at 260 nm in the presence of each DNA-binding molecule.
High-throughput screening is widely used for the identification of hit compounds from combinatorial libraries. (See P. A. Johnston, P. A. Johnston, Drug Discovery Today, 7: 353 (2002); D. L. Boger, J. Deshamais, K. Capps, Angew. Chem. Int. Ed., 42: 4138 (2003); S. Wang, T. B. Sim, Y.-S. Kim, Y.-T. Chang, Cum Opin. Cham. Biol., 8: 371 (2004)). We have examined the application of the gold nanoparticle aggregates for high throughput screening of endonuclease inhibitors by visual inspection. […] Thus, we can determine potencies of inhibitor using color change as a function of time. […] The trend of potencies of inhibitors was determined to be DAPI>EB>DNR>9-AA, EIPT, and AQ2A>AMSA, which is consistent with the control experiments involving serial analysis of each inhibitors with nanoparticle-free duplex DNA.
Two separate types of DNA-AuNPs were prepared by functionalizing 13 nm gold nanoparticles with two different thiol-modified oligonucleotide strands, AuNP-3 and AuNP-4. AuNP-3 was functionalized with 3′-hydroxyl-modified and 5′-thiol-modified 15-mer oligonucleotides (DNA-3 sequence: 5′-SH-A10-CGTTAGGACTTACGC-OH-3′, SEQ ID NO:3). DNA-3 is complementary to one-half of the 30-mer linker oligonucleotide (DNA-linker oligonucleotide sequence: 5′ […]-3′, SEQ ID NO:5). AuNP-4 was functionalized with 3′-thiolated and 5′-phosphorylated 15-mer oligonucleotides (DNA-4: 5′-PO4^3−-TTATAACTATTCCTA-A10-SH-3′, SEQ ID NO:4) that are complementary to the other half of the linker-oligonucleotide. After combining the three components, AuNP-3 and AuNP-4 (each at 3 nM) as well as the linker-oligonucleotides (3 μM), in the presence of ligation buffer (50 mM Tris-HCl buffer pH 7.5, 5 mM MgCl2, […], 0.05 mg/ml BSA, T4 DNA Ligase 4.000 units/ml), the DNAs assemble to form a three-strand DNA hybridization complex. First the linker-oligonucleotide acts as templates to co-align the 3′-hydroxyl group of the DNA-3 and the 5′-phosphate group of the DNA-4. Then the T4 DNA Ligase catalyzes the formation of a phosphodiester bond between the 3′-hydroxyl and the 5′-phosphate groups of DNA-3 and DNA-4, covalently joining DNA-3 and DNA-4 to form a 30-mer oligonucleotide. This method yield stable 30-base-pair double stranded links between the AuNPs. Since the nanoparticles aggregate, a red-to-purple color change can be observed.
The prepared gold nanoparticle aggregate was washed (3 times) with DNase I buffer (10 mM sodium phosphate buffer pH 7.0, 0.25 mM MgCl2). The assay was initiated by adding DNase I (10-50 units/ml) and the hydrolysis kinetics were monitored by a UV-vis spectrum at the extinction of 520 nm with stirring at room temperature.

| Compound | Tm (melting temperature of duplex DNA in the presence of endonuclease inhibitor) (duplex DNA; Table 1) | Tm (melting temperature of duplex DNA in the presence of endonuclease inhibitor) (duplex DNA; Table 2, at 260 nm) | TH (time at which 50% of the aggregate is hydrolyzed by DNase I) (DNase I [1]) | t (releasing time; time required to hydrolyze 50% of the aggregates) (DNase I [2]) | color change of aggregate solution by visual inspection after adding DNase I (FIG. 10) (DNase I [2]; visual inspection, purple to red as a function of reaction time, no or slow change indicates inhibition) |
| --- | --- | --- | --- | --- | --- |
| Nc1c2ccccc2nc2ccccc12 [9-AA, 9-aminoacridine] | 62.5 °C | 62.5 °C | 24.6 min | 16.0 min |  |
| O=C(O)c1ccc2c(c1)C(=O)c1ccccc1C2=O [AQ2A, anthraquinone-2-carboxylic acid] | 62.5 °C | 62.5 °C | 19.6 min | 14.5 min |  |
| N=C(N)c1ccc(-c2cc3ccc(C(=N)N)cc3[nH]2)cc1 [DAPI, 4′,6-diamidedino-2-phenylindole] | 77.0 °C | 77.0 °C | 101.2 min | >1440 min | remains light purple throughout the examination time |
| COc1cccc2c1C(=O)c1c(O)c3c(c(O)c1C2=O)C[C@@](O)(C(C)=O)C[C@@H]3O[C@H]1C[C@H](N)[C@H](O)[C@H](C)O1 [DNR, daunorubicin] | 65.5 °C | 65.5 °C | 43.2 min | 31.5 min |  |
| Cc1c2ccncc2c(C)c2c1[nH]c1ccccc12 [EIPT, ellipticine] | 63.0 °C | 63.0 °C | 25.2 min | 15.0 min |  |
